Where two headings read alike, the source gives them in different places.
Tests used:
[1] = Ex vivo bioconversion of acacetin prodrug in rat plasma; assay type: in vitro ADME; settings: 37 °C, n = 3
Protocol: The ex vivo bioconversion of acacetin prodrug was determined in rat plasma or rat hepatic microsome that contains high content alkaline phosphatase, as described previously[30] and in Supplemental Materials. The in vivo bioconversion of acacetin prodrug was determined in beagle dogs as described in Supplemental Materials. […]
Bioconversion of acacetin prodrug in rat plasma and hepatic microsomes
Hydrolysis of acacetin prodrug was initially determined in rat plasma. The 100 µL rat plasma samples containing 5 µg/mL prodrug was prepared at 4 °C and then incubated in a water bath at 37 °C and continuously shaken at 60 rpm. The plasma samples were collected at 0, 5, 15, 30, 60, 120, 180, 240 and 360 min, respectively. The reaction was terminated by adding 1 mL cold methanol containing the IS solution (50 ng/mL pentamethylquercetin). […]
The reaction mixture […]
was prepared in 50 mM Tris-HCl buffer (pH = 7.4) with 1 mM NADPH (nicotinamide adenine dinucleotide phosphate) and 0.5 mg/mL (total protein) microsomes. Prodrug solutions were added to the microsomes reaction mixture with a final concentration of 5 µg/mL. The reaction solution was incubated in a water bath at 37℃ and shaken at 60 rpm for 1 h. The samples were collected at 0, 1, 2, 15, 30 and 60 min. […] After centrifugation at 12000 g for 30 min, the supernatant was immediately analyzed by HPLC. […]

[2] = Acute toxicity assessment in ICR mice, single i.v. dose; assay type: in vivo; settings: both sexes, ICR, mouse, in vivo, iv, Bliss method
Protocol: (§1) The acute toxicity of acacetin prodrug was assessed in ICR mice (weighing 18~22 g) as described in Supplemental Materials, and the LD50 was calculated by the Bliss method. […]
(§2) Acute toxicity assessment of acacetin prodrug
(§3) The acute toxicity of acacetin prodrug was assessed in ICR mice (weighing 18~22 g) provided by the Laboratory Animal Center of Hong Kong University (Hong Kong, China) and maintained under controlled temperature conditions (23 °C), with a constant 12 h light-dark cycle and free access to food and water. Sixty ICR mice (male, 30; female, 30) were stratified by weight and randomly assigned to six groups: (n = 10 in each group, 5 male and 5 female).
(§4) Acacetin prodrug dissolved in 5% glucose was intravenously administered at 900, 810, 765, 720, 630 and 540 mg/kg through tail vein, respectively. The animals were closely observed for symptoms and mortality in 24 h. All of the surviving animals were euthanized at the end of the study, and their vital organs were individually observed for gross pathology by necropsy, and the LD50 was calculated by the Bliss method.11, 12

ICR mice = assay: as above; assay type: in vivo
Protocol: as §1, §2, §3, §4

## COc1ccc(-c2cc(=O)c3c(O)cc(OP(=O)([O-])[O-])cc3o2)cc1.[Na+].[Na+] [acacetin prodrug, phosphate sodium salt of acacetin]
[1]; 60 min incubation
  prodrug converted into acacetin: 50%
[1]; within 240 min incubation
  prodrug converted into acacetin: 100%
[2]; read-out: LD50 with 95% confidence level
  LD50 at 24 h: 685 to 760 mg/kg
[2]; intravenous (tail vein), single dose, read-out: LD50
  LD50 at 24 h: 722 mg/kg
ICR mice; i.v. dose of 900 mg/kg
  mortality: all animals died
ICR mice; i.v. dose of up to 540 mg/kg
  survival within 24 h: All animals survived
ICR mice; i.v., 24 h observation
  adverse effects or signs of toxicity in the surviving animals: No significant adverse effects or signs of toxicity
ICR mice; i.v., end of study
  necropsy of the surviving mice: no gross pathological alteration
ICR mice; intravenous (tail vein), single dose, Bliss method
  LD50: 721 mg/kg

Source: PMC4861903, “Synthesis of a highly water-soluble acacetin prodrug for treating experimental atrial fibrillation in beagle dogs” (Scientific Reports, 2016)
